Measurements as given in ChEMBL document CHEMBL4396928, “Discovery of Selective, Orally Bioavailable Pyrazolopyridine Inhibitors of Protein Kinase Cθ (PKCθ) That Ameliorate Symptoms of Experimental Autoimmune Encephalomyelitis” (ACS Med Chem Lett, 2019).

Columns and labels:
Homo sapiens [1] = species on record: Homo sapiens; test: Selectivity ratio Ki for recombinant full length PKC delta (unknown origin) to Ki for human recombinant full length His-tagged PKC theta
[2] = molecular target: Protein kinase C theta type (Homo sapiens, UniProt Q04759); test: Inhibition of human recombinant full length His tagged PKC theta expressed in baculovirus using ERMRPRKRQGSVRRRV peptide as substrate incubated for 60 mins in presence of [33P] gammaATP by microbeta liquid scintillation counter
PBMC = test: Inhibition of IL-2 secretion from human PBMC cells stimulated with anti-CD3/CD28 measured after 24 hrs by bead-based FLISA; format: functional, cell-based
Homo sapiens [3] = species on record: Homo sapiens; test: Selectivity ratio Ki for recombinant full length PKC alpha (unknown origin) to Ki for human recombinant full length His-tagged PKC theta
[4] = Half-life in iv dosed rat; format: ADME, organism-based; details: in vivo
[5] = Clearance in iv dosed rat; format: ADME, organism-based; details: in vivo
[6] = Volume of distribution at steady state in iv dosed rat; format: ADME, organism-based; details: in vivo, read-out: Vdss
[7] = Permeability across apical to basolateral side in human Caco2 cells measured at 120 mins by LC-MS/MS analysis; format: ADME, cell-based; details: Caco-2, read-out: permeability
[8] = Efflux ratio of permeability in human Caco2 cells by LC-MS/MS analysis; format: ADME, cell-based; details: Caco-2
[9] = molecular target: Protein kinase C delta type (Homo sapiens, UniProt Q05655); test: Inhibition of recombinant full length PKC delta (unknown origin) using ERMRPRKR- QGSVRRRV peptide as substrate measured after 15 mins in presence of ATP by spectrophotometric analysis
[10] = molecular target: Protein kinase C alpha type (Homo sapiens, UniProt P17252); test: Inhibition of recombinant full length PKC alpha (unknown origin) using RRRRRKGSFKRKA peptide as substrate measured after 15 mins in presence of ATP by spectrophotometric analysis
[11] = molecular target: Tyrosine-protein kinase JAK2 (Homo sapiens, UniProt O60674); test: Inhibition of JAK2 (unknown origin) using polyE4Y peptide as substrate incubated for 60 mins in presence of [33P] gammaATP by microbeta liquid scintillation counter
[12] = Lipophilicity, logD of compound; format: physicochemical; details: octanol/water
[13] = molecular target: Rho-associated protein kinase (Homo sapiens, UniProt O75116+Q13464); test: Inhibition of ROCK (unknown origin) using Myelin Basic Protein as substrate incubated for 60 mins in presence of [33P] gammaATP by microbeta liquid scintillation counter; format: protein assay
[14] = Unbound hepatic clearance in rat hepatocytes assessed per million cells; format: ADME, cell-based, Hepatocyte
[15] = Unbound hepatic clearance in human hepatocytes assessed per million cells; format: ADME, cell-based, Hepatocyte
Cytochrome P450 2D6 = Cytochrome P450 2D6 (Homo sapiens, UniProt P10635); test: Inhibition of CYP2D6 (unknown origin) at 8 uM; format: ADME
HFL1 = test: Cytotoxicity against human HFL1 cells assessed as growth inhibition measured after 48 hrs by 3H-thymidine incorporation assay; format: cell-based
[16] = Stability of compound in rat liver microsomes assessed as compound remaining at 30 mins; format: ADME, Microsome; details: read-out: Stability
[17] = Dissociation constant, pKa of compound; format: physicochemical
Cytochrome P450 2C9 = Cytochrome P450 2C9 (Homo sapiens, UniProt P11712); test: Inhibition of CYP2C9 (unknown origin) at 4 uM; format: ADME
[18] = Stability of compound in human liver microsomes assessed as compound remaining at 30 mins; format: ADME, Microsome; details: read-out: Stability
[19] = molecular target: Voltage-gated inwardly rectifying potassium channel KCNH2 (Homo sapiens, UniProt Q12809); test: Inhibition of human ERG
Cytochrome P450 3A4 = Cytochrome P450 3A4 (Homo sapiens, UniProt P08684); test: Inhibition of CYP3A4 (unknown origin) at 16 uM; format: ADME
[20] = molecular target: T1, Receptor-type tyrosine-protein kinase FLT3 (Homo sapiens, UniProt P36888); test: Inhibition of FLT3 (unknown origin) using polyE4Y peptide as substrate incubated for 60 mins in presence of [33P] gammaATP by microbeta liquid scintillation counter
T1 sequence (P36888 whole entry): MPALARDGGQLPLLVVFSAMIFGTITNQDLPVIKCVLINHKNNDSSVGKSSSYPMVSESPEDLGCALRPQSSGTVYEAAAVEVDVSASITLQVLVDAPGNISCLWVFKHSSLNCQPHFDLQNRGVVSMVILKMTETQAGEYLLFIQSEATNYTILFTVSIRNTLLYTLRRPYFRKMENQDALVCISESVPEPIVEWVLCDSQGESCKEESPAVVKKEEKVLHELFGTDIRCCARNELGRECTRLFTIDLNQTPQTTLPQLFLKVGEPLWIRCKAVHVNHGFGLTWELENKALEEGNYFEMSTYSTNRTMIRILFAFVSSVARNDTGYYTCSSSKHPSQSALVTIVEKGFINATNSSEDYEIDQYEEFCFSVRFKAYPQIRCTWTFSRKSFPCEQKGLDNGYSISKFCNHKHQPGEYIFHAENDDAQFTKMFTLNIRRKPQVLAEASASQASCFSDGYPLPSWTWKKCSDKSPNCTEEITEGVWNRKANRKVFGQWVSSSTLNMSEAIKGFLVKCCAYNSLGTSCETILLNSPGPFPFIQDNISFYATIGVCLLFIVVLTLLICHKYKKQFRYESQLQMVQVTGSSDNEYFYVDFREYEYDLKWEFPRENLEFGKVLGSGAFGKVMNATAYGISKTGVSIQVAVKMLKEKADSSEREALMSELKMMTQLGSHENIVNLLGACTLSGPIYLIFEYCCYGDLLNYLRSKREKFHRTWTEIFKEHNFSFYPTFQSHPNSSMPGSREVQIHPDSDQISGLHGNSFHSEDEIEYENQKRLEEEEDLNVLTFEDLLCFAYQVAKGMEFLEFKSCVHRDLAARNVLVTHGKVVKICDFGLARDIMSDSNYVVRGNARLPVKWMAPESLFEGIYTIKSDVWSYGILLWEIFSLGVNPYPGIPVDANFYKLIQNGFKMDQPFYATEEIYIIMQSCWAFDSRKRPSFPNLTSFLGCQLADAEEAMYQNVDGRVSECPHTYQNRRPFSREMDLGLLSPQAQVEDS

[21] = molecular target: cAMP-dependent protein kinase catalytic subunit alpha (Homo sapiens, UniProt P17612); test: Inhibition of protein kinase A (unknown origin) using Kemptide (LRRASLG) as substrate incubated for 15 mins in presence of ATP by spectrophotometric analysis
[22] = molecular target: T2, Tyrosine-protein kinase JAK3 (Homo sapiens, UniProt P52333); test: Inhibition of JAK3 (unknown origin)
T2 sequence (P52333 whole entry): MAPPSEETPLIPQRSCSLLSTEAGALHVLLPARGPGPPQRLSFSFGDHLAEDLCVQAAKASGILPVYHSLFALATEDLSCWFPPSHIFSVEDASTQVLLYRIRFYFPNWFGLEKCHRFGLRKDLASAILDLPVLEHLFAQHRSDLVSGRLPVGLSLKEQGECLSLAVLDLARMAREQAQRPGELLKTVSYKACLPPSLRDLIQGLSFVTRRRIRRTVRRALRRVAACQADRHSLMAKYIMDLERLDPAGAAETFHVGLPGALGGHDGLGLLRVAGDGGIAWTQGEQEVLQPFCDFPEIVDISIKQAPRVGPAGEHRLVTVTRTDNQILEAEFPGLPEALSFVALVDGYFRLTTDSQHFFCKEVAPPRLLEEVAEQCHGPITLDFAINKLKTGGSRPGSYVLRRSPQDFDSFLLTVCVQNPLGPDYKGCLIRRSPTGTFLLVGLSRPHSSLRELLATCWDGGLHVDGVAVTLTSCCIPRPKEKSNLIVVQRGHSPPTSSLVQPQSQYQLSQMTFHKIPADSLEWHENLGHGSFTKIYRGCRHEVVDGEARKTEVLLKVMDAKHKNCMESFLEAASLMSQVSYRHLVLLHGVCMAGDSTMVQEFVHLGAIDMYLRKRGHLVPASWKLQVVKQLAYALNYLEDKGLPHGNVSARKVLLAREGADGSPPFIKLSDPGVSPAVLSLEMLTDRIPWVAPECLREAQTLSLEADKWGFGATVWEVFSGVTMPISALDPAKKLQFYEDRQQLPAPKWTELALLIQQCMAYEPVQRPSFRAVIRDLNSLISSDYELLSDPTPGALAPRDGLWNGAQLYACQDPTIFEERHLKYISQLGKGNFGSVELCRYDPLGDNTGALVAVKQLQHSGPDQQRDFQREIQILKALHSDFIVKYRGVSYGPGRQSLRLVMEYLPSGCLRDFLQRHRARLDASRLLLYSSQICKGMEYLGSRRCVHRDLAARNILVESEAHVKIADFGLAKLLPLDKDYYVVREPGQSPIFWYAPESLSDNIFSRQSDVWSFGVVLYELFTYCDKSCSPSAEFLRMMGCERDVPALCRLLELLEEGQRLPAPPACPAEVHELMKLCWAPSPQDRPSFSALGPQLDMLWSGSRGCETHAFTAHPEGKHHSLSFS

[23] = molecular target: Glycogen synthase kinase-3 beta (Homo sapiens, UniProt P49841); test: Inhibition of GSK-3beta (unknown origin) using HSSPHQS(PO3H2)EDEEE peptide as substrate measured after 15 mins in presence of ATP by spectrophotometric analysis

Sequence of Tyrosine-protein kinase JAK2 (O60674 whole entry): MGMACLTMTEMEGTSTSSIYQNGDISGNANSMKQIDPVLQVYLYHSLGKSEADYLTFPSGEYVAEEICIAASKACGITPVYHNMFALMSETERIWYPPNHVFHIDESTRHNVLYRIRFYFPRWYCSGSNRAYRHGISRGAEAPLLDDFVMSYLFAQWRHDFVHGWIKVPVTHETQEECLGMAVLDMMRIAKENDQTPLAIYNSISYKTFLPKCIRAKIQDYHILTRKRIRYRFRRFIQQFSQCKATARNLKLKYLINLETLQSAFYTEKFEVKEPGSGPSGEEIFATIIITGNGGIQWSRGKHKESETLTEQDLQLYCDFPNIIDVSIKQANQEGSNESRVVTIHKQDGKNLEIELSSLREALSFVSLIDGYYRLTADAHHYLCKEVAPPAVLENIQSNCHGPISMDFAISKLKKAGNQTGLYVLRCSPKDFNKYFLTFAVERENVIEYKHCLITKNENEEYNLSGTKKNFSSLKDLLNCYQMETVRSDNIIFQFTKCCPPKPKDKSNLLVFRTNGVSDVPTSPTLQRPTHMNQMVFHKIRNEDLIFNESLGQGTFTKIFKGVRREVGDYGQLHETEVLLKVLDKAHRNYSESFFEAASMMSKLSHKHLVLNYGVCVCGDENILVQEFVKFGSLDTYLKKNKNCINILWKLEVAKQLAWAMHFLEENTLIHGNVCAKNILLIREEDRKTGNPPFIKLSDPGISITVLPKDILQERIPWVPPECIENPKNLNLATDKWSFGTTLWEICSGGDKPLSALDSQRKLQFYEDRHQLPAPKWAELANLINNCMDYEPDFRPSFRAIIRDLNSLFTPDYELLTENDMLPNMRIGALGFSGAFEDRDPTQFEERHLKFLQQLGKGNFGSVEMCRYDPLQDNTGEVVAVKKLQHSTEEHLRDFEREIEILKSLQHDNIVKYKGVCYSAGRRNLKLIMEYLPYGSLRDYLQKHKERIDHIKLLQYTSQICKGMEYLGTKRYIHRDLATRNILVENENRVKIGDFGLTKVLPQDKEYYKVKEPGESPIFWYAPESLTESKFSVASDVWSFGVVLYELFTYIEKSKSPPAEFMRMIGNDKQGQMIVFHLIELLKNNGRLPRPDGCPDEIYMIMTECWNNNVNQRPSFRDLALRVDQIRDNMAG
Sequence of Voltage-gated inwardly rectifying potassium channel KCNH2 (Q12809 whole entry): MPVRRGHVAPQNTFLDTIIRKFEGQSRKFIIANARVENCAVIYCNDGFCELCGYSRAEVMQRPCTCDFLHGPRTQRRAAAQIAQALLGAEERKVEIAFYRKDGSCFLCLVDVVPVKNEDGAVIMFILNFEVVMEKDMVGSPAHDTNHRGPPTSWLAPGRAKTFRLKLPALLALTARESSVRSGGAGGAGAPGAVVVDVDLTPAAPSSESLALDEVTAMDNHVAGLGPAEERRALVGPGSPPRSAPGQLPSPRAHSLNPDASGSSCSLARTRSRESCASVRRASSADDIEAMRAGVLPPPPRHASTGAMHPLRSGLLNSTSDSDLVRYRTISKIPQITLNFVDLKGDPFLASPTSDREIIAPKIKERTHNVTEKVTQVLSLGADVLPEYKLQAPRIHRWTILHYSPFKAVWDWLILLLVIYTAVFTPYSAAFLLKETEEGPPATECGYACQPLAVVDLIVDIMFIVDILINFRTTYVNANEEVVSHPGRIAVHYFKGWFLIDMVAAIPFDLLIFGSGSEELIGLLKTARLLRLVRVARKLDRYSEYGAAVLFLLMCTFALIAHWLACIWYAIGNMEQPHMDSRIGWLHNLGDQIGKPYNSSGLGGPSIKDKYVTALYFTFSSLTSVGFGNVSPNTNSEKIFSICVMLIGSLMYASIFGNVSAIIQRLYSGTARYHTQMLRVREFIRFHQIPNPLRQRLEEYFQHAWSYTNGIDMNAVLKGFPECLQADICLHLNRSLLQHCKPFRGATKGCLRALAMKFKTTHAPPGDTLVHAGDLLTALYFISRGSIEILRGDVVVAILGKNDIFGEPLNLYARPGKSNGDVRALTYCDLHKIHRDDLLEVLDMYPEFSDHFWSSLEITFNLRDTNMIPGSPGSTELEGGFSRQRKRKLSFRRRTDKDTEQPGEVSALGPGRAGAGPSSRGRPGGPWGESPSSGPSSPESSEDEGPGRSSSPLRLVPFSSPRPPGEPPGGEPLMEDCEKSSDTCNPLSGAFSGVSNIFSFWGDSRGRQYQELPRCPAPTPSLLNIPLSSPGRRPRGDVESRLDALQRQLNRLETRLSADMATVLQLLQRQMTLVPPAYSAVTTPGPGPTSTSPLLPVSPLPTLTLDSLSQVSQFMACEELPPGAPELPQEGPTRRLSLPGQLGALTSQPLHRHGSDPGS
Sequence of Protein kinase C delta type (Q05655 whole entry): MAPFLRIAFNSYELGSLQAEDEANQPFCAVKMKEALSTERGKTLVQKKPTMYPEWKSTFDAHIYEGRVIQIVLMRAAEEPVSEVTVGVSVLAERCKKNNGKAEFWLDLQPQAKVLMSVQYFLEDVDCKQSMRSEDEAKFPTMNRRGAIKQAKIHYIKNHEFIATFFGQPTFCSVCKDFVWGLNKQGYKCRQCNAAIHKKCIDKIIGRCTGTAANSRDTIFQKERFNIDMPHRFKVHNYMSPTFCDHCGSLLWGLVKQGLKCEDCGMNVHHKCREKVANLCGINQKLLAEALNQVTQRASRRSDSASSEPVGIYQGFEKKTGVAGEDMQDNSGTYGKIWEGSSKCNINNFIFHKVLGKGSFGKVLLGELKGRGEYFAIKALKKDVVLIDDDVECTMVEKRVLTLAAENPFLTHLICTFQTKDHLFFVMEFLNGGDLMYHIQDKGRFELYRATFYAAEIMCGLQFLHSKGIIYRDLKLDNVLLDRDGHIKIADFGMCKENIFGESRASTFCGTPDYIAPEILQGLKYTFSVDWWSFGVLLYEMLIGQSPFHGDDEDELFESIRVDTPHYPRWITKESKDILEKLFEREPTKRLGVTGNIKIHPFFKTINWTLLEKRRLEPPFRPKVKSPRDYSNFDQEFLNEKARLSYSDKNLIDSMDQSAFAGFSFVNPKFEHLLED
Sequence of Protein kinase C theta type (Q04759 whole entry): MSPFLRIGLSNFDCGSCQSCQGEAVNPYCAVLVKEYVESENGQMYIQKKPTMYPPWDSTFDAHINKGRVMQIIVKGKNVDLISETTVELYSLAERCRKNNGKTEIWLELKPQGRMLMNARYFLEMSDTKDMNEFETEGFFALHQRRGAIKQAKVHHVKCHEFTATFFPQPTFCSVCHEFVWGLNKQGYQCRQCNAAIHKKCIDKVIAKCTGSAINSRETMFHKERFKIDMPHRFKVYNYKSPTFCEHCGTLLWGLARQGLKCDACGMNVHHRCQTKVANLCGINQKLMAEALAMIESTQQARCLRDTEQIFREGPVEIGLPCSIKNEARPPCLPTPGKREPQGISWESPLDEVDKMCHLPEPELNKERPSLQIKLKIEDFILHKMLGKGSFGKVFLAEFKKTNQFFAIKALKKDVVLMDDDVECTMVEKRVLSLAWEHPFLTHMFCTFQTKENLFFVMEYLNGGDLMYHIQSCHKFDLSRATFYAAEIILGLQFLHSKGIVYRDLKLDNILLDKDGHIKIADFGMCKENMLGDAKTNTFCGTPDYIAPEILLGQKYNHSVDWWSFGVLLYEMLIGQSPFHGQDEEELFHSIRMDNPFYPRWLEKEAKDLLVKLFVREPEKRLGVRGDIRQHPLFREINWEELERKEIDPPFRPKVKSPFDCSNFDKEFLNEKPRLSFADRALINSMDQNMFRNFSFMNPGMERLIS
Sequence of Cytochrome P450 3A4 (P08684 whole entry): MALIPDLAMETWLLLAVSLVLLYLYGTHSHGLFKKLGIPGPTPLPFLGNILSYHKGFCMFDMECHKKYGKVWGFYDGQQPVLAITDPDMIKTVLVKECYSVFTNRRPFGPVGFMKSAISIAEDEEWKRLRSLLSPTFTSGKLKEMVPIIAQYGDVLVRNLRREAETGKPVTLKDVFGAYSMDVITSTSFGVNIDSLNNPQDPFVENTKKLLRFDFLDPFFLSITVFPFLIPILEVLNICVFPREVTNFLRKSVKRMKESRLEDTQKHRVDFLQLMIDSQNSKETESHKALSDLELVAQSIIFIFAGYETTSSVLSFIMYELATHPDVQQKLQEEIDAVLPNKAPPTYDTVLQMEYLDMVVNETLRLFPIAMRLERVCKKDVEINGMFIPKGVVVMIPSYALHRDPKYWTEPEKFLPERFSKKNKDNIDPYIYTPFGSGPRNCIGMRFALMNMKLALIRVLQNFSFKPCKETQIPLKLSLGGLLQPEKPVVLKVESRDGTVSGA

SMILES | Ratio Ki (Homo sapiens [1]) | Ki [2] [nM] | Ratio Ki (Homo sapiens [3]) | Ki [9] [nM] | IC50 (PBMC) [nM] | also measured
NCC1(c2cccc(-c3ccnc4[nH]ncc34)c2)CCCC1 | 18 | 22 | 28 | – | 350 | –
NCC1(c2cccc(-c3ccnc4[nH]ncc34)c2)CCCCC1 | 8 | 30 | 18 | – | 580 | –
CCC(C)(CN)c1cccc(-c2ccnc3[nH]nc(C(F)(F)F)c23)c1 (configuration not stated) | 25 | 0.4 | – | – | 10 | half-life [4]: 1.8 h; clearance [5]: 45 mL/min/kg; Vd [6]: 2.7 L/kg
CC(C)(C#N)c1cccc(-c2ccnc3[nH]ncc23)n1 | – | 14 | – | 240 | – | Papp A→B at 2 h [7]: 20.1 ×10⁻⁶ cm/s; half-life [4]: 2.5 h; efflux ratio [8]: 0.95; Ki [10]: 465 nM; Ki [11]: 86 nM; logD [12]: 2.9; Ki [13]: 210 nM; clearance [5]: 22 mL/min/kg; Vd [6]: 1.22 L/kg; CL free [14]: 24 µL/min; CL free [15]: 33 µL/min
CCC(C)(CN)c1cc(C)cc(-c2ccnc3[nH]ncc23)c1 (configuration not stated) | 24 | 5 | – | – | 260 | –
Cc1cc(-c2ccnc3[nH]nc(C(F)(F)F)c23)cc(C2(CN)CCC2)c1 | – | 3 | – | 135 | 60 | inhibition (INH) (Cytochrome P450 2D6): Active; IC50 (HFL1): 650 nM; remaining at 0.5 h [16]: 56%; pKa [17]: 8.8; Ki [10]: 60 nM; inhibition (INH) (Cytochrome P450 2C9): Active; remaining at 0.5 h [18]: 81%; logD [12]: 2.9; IC50 [19]: 700 nM; inhibition (INH) (Cytochrome P450 3A4): Active
CC(C)(C#N)c1cccc(-c2ccnc3[nH]ncc23)c1 | – | 28 | – | 584 | – | Papp A→B at 2 h [7]: 36 ×10⁻⁶ cm/s; half-life [4]: 4.6 h; efflux ratio [8]: 0.7; Ki [11]: 270 nM; Ki [13]: 560 nM; clearance [5]: 12 mL/min/kg; Vd [6]: 0.94 L/kg; CL free [14]: 58 µL/min; CL free [15]: 172 µL/min
CCC(C)(CN)c1cccc(-c2ccnc3[nH]nc(C)c23)c1 (configuration not stated) | > 16 | < 1 | – | – | 100 | –
NCC1(c2cccc(-c3ccnc4[nH]nc(C(F)(F)F)c34)c2)CCC1 | – | 2 | – | 60 | 90 | IC50 (HFL1): 1900 nM; remaining at 0.5 h [16]: 88%; pKa [17]: 8.8; Ki [10]: 57 nM; remaining at 0.5 h [18]: 81%; IC50 [19]: 3000 nM
CCC(C)(C#N)c1cccc(-c2ccnc3[nH]ncc23)c1 (configuration not stated) | – | 72 | – | – | 2700 | –
NCC1(c2cccc(-c3ccnc4[nH]nc(C(F)(F)F)c34)c2)CCOCC1 | – | 9 | – | 184 | 130 | IC50 (HFL1): 3300 nM; remaining at 0.5 h [16]: 65%; Ki [10]: 468 nM; Ki [20]: 46 nM; Ki [21]: 30 nM; remaining at 0.5 h [18]: 96%; IC50 [19]: > 10000 nM
CCC(C)(CN)c1cccc(-c2ccnc3[nH]ncc23)c1 (configuration not stated) | 13 to 24 | 3 | 37 | – | 170 | –
NCC1(c2cccc(-c3ccnc4[nH]ncc34)c2)CCC1 | 18 | 17 | 41 | – | 300 | –
CCCc1cc(-c2ccnc3[nH]ncc23)cc(C(C)(CC)CN)c1 (configuration not stated) | 39 | 32 | – | – | 200 | –

Continued, in another order:

Ratio Ki (Homo sapiens [1]) | Ki [2] [nM] | Ratio Ki (Homo sapiens [3]) | Ki [9] [nM] | SMILES | IC50 (PBMC) [nM] | also measured
22 | 0.3 | – | – | CCC(C)(CN)c1cccc(-c2ccnc3[nH]nc(Cl)c23)c1 (configuration not stated) | 20 | –
16 | 12 | 50 | – | CC(C)(CN)c1cccc(-c2ccnc3[nH]ncc23)c1 | 330 | –
111 | 9 | 93 | – | NCC1(c2cccc(-c3ccnc4[nH]ncc34)c2)CCOCC1 | 550 | –
36 | 0.2 | 149 | – | C#CCC(C)(CN)c1cccc(-c2ccnc3[nH]ncc23)c1 (configuration not stated) | 20 | –
– | 3 | – | 12 | CC(C)(C#N)c1cccc(-c2ccnc3[nH]ccc23)n1 | – | half-life [4]: 0.3 h; Ki [10]: 110 nM; Ki [11]: 13 nM; Ki [20]: 100 nM; Ki [21]: 110 nM; logD [12]: 3.4; Ki [13]: 6 nM; clearance [5]: 42 mL/min/kg; Vd [6]: 0.99 L/kg; Ki [22]: 3 nM; CL free [14]: 156 µL/min; Ki [23]: 210 nM; CL free [15]: 24 µL/min
39 | 14 | – | – | CCc1cc(-c2ccnc3[nH]ncc23)cc(C(C)(CC)CN)c1 (configuration not stated) | 250 | –
